Assay results as given in patent publication US20220317138A1, “METHODS FOR DETERMINING THE CONCENTRATION OF A CARBAPENEM ANTIBIOTIC IN A BIOLOGICAL SAMPLE” (priority 2019, published 2022).
Read-outs that look alike come from different tables or passages of the source.

Tests used:
OXA-163 = details: OXA-163, for meropenem; cited from earlier work
[1] = system: AmpCHD beta-lactamase (class C); assay: Screening of beta-lactamases by competition, nitrocefin as reporter substrate; assay type: biochemical
[2] = biological target: CTXM15 beta-lactamase (class A) (Escherichia coli, UniProt Q9EXV5); assay type: biochemical; details: nitrocefin reporter
Chain of CTXM15 beta-lactamase (class A) (Q9EXV5 29-291 limits assumed): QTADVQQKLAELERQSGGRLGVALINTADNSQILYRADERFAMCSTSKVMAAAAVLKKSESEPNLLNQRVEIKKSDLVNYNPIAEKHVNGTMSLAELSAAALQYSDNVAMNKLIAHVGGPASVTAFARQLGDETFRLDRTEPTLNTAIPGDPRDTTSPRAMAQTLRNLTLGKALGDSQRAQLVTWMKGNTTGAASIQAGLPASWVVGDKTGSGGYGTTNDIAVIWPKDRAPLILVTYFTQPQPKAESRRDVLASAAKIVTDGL

[3] = biological target: T1, beta-lactamase class D OXA-48 (Klebsiella pneumoniae, UniProt Q6XEC0); assay type: biochemical; details: for Accuracy <> (average) / [Meropenem] <> (average): average of 5 replicates
T1 sequence (Q6XEC0 23-265 limits assumed): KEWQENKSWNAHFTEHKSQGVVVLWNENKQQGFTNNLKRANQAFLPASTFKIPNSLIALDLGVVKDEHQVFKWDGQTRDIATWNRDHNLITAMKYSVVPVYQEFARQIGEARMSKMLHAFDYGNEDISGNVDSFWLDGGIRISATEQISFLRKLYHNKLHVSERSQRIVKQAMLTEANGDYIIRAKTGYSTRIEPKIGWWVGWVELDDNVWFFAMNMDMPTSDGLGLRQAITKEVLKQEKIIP
Description: The specificity (or selectivity) of the method according to an embodiment of the invention is defined as the ability of the method to measure the concentration of a carbapenem antibiotic (such as meropenem) in presence of an excess of another beta-lactam antibiotic (second beta-lactam) currently used in ICUs (see Table 4).
To determine the specificity of the method illustrating the invention for carbapenem antibiotics, in particular meropenem, versus other beta-lactam antibiotics, stock-solutions of second beta-lactam antibiotics were prepared in water.
An excess of a second beta-lactam concentration of up to 10 times the concentration of meropenem was used.

[4] = system: Imp4 beta-lactamase (class B); assay: Screening of beta-lactamases by competition, nitrocefin as reporter substrate; assay type: biochemical
[5] = biological target: BlaP beta-lactamase (class A) (Bacillus licheniformis, UniProt P00808); assay type: biochemical; details: nitrocefin reporter
Chain of BlaP beta-lactamase (class A) (P00808 27-307 limits assumed): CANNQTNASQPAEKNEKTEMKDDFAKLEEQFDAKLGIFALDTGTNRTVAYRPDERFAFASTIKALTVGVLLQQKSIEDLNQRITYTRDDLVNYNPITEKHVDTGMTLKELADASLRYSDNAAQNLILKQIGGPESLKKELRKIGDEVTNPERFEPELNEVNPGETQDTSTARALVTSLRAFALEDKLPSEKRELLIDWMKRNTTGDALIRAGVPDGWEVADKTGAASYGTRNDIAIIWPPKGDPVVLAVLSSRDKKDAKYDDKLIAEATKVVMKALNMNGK

[6] = biological target: P99 beta-lactamase (class C) (Enterobacter cloacae, UniProt P05364); assay type: biochemical; details: nitrocefin reporter
Chain of P99 beta-lactamase (class C) (P05364 21-381): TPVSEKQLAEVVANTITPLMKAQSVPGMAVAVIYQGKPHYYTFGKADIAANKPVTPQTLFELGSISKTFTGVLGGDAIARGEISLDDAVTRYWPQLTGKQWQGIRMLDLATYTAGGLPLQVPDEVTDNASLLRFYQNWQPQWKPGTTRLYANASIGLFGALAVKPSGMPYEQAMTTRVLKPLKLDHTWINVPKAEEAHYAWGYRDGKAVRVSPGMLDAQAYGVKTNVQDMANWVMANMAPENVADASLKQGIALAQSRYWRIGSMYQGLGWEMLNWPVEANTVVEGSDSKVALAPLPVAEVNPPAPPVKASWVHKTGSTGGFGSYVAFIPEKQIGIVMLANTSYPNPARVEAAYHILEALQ

OXA-48 = OXA-48 (Klebsiella pneumoniae, UniProt Q6XEC0); details: OXA-48, for meropenem; cited from earlier work
Chain of OXA-48 (Q6XEC0 23-265 limits assumed): as the sequence (Q6XEC0 23-265 limits assumed) above

[7] = biological target: T1, beta-lactamase class D OXA-48; assay type: biochemical; details: OXA-48, nitrocefin, 482 nm
[8] = biological target: Imp1 beta-lactamase (class B) (Serratia marcescens, UniProt P52699); assay type: biochemical; details: nitrocefin reporter
Chain of Imp1 beta-lactamase (class B) (P52699 19-246 limits assumed): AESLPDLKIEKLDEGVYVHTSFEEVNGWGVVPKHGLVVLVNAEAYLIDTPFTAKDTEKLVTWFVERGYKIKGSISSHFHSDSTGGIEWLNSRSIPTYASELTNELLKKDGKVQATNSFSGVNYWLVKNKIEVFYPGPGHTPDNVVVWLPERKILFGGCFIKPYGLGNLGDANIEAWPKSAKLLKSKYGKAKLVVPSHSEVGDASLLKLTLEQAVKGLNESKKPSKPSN

[9] = biological target: Kpc2 beta-lactamase (class A) (Klebsiella pneumoniae, UniProt Q9F663); assay type: biochemical; details: nitrocefin reporter
Chain of Kpc2 beta-lactamase (class A) (Q9F663 25-293 limits assumed): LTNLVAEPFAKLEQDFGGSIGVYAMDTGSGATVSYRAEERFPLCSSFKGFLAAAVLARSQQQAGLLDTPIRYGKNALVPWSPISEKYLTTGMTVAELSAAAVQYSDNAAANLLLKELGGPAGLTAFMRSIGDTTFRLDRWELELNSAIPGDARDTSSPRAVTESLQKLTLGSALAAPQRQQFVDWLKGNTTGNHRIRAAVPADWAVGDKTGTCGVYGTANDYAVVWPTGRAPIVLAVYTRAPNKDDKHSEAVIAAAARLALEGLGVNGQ

[10] = biological target: Oxa48 beta-lactamase (class D) (Klebsiella pneumoniae, UniProt Q6XEC0); assay type: biochemical; details: nitrocefin reporter
Chain of Oxa48 beta-lactamase (class D) (Q6XEC0 23-265 limits assumed): as the sequence (Q6XEC0 23-265 limits assumed) above

[11] = Meropenem 1.2 mg/L, second β-lactam 10.0 mg/L (8.4 times excess)
[12] = Meropenem 20.0 mg/L, second β-lactam 200.0 mg/L (10 times excess)

C[C@@H](O)[C@H]1C(=O)N2C(C(=O)O)=C(S[C@@H]3CN[C@H](C(=O)N(C)C)C3)[C@H](C)[C@H]12 [Meropenem, meropenem]
Km (OXA-163): 2200 µM | hydrolysis rate symbol, (Vmax/V0)-1 [1]: + (0.1-1) | hydrolysis rate symbol, (Vmax/V0)-1 [2]: +++ (10-100) | Accuracy <> (average) [3, 11]: 100% | [Meropenem] <> (average) [3, 11]: 1.2 mg/L | Accuracy Replicate 1 [3, 11]: 98% | [Meropenem] Replicate 1 [3, 11]: 1.1 mg/L | Accuracy Replicate 2 [3, 11]: 100% | [Meropenem] Replicate 2 [3, 11]: 1.2 mg/L | Accuracy Replicate 3 [3, 11]: 97% | [Meropenem] Replicate 3 [3, 11]: 1.1 mg/L | Accuracy Replicate 4 [3, 11]: 108% | [Meropenem] Replicate 4 [3, 11]: 1.3 mg/L | Accuracy Replicate 5 [3, 11]: 97% | [Meropenem] Replicate 5 [3, 11]: 1.1 mg/L | Accuracy <> (average) [3, 12]: 100% | [Meropenem] <> (average) [3, 12]: 20.2 mg/L | Accuracy Replicate 1 [3, 12]: 103% | [Meropenem] Replicate 1 [3, 12]: 20.7 mg/L | Accuracy Replicate 2 [3, 12]: 104% | [Meropenem] Replicate 2 [3, 12]: 20.9 mg/L | Accuracy Replicate 3 [3, 12]: 98% | [Meropenem] Replicate 3 [3, 12]: 19.8 mg/L | Accuracy Replicate 4 [3, 12]: 98% | [Meropenem] Replicate 4 [3, 12]: 19.9 mg/L | Accuracy Replicate 5 [3, 12]: 97% | [Meropenem] Replicate 5 [3, 12]: 19.6 mg/L | hydrolysis rate symbol, (Vmax/V0)-1 [4]: + (0.1-1) | hydrolysis rate symbol, (Vmax/V0)-1 [5]: + (0.1-1) | hydrolysis rate symbol, (Vmax/V0)-1 [6]: +++ (10-100) | Km (OXA-48): 200 µM | lower limit of quantification (LLOQ) [7]: 0.5 mg/L | upper limit of quantification (ULOQ) [7]: 20 mg/L | hydrolysis rate symbol, (Vmax/V0)-1 [8]: + (0.1-1) | hydrolysis rate symbol, (Vmax/V0)-1 [9]: + (0.1-1) | hydrolysis rate symbol, (Vmax/V0)-1 [10]: +++ (10-100)
